PubChem BioAssay (NCI)
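Five concentrations, 48 hours, 96-well plates. At the GI50, growth is halved. TGI: concentration producing complete growth inhibition.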

Columns and labels:
Test in all cases: inhibition of tumour cell growth, NCI panel, 48 h
SF-268 CNS = test system: SF-268 CNS
HCT-15 colon = test system: HCT-15 colon
SF-539 CNS = test system: SF-539 CNS
UO-31 renal = test system: UO-31 renal
ACHN renal = test system: ACHN renal
OVCAR-4 ovarian = test system: OVCAR-4 ovarian
HOP-92 NSCLC = test system: HOP-92 NSCLC
M14 melanoma = test system: M14 melanoma
U251 CNS = test system: U251 CNS
NCI-H23 lung = test system: NCI-H23 lung
DU-145 prostate = test system: DU-145 prostate
COLO 205 colon = test system: COLO 205 colon
SNB-75 CNS = test system: SNB-75 CNS
OVCAR-5 ovarian = test system: OVCAR-5 ovarian
SN12C renal = test system: SN12C renal
SK-MEL-5 melanoma = test system: SK-MEL-5 melanoma
UACC-257 melanoma = test system: UACC-257 melanoma
HS 578T breast = test system: HS 578T breast
HCC-2998 colon = test system: HCC-2998 colon
KM12 colon = test system: KM12 colon
SK-OV-3 ovarian = test system: SK-OV-3 ovarian
UACC-62 melanoma = test system: UACC-62 melanoma
MCF7 breast = test system: MCF7 breast
TK-10 renal = test system: TK-10 renal
IGROV1 ovarian = test system: IGROV1 ovarian
SW-620 colon = test system: SW-620 colon
A549 NSCLC = test system: A549 NSCLC
EKVX NSCLC = test system: EKVX NSCLC
NCI-H226 lung = test system: NCI-H226 lung
LOX IMVI melanoma = test system: LOX IMVI melanoma
MOLT-4 leukemia = test system: MOLT-4 leukemia
HCT-116 colon = test system: HCT-116 colon
RPMI-8226 leukemia = test system: RPMI-8226 leukemia
786-0 renal = test system: 786-0 renal
MDA-MB-435 = test system: MDA-MB-435
SNB-19 CNS = test system: SNB-19 CNS
T-47D breast = test system: T-47D breast
MALME-3M melanoma = test system: MALME-3M melanoma
OVCAR-8 ovarian = test system: OVCAR-8 ovarian
MDA-MB-231 breast = test system: MDA-MB-231 breast
HL-60(TB) leukemia = test system: HL-60(TB) leukemia
NCI/ADR-RES ovarian = test system: NCI/ADR-RES ovarian
A498 renal = test system: A498 renal
SF-295 CNS = test system: SF-295 CNS
HT29 colon = test system: HT29 colon
HOP-62 NSCLC = test system: HOP-62 NSCLC
SK-MEL-28 melanoma = test system: SK-MEL-28 melanoma
CCRF-CEM leukemia = test system: CCRF-CEM leukemia
RXF 393 renal = test system: RXF 393 renal
SR leukemia = test system: SR leukemia
NCI-H460 lung = test system: NCI-H460 lung
K-562 leukemia = test system: K-562 leukemia
OVCAR-3 ovarian = test system: OVCAR-3 ovarian
BT-549 breast = test system: BT-549 breast
CAKI-1 renal = test system: CAKI-1 renal
SK-MEL-2 melanoma = test system: SK-MEL-2 melanoma
NCI-H522 lung = test system: NCI-H522 lung
PC-3 prostate = test system: PC-3 prostate

## c1ccc(CN2CCC(Nc3ccccc3)(c3nnnn3Cc3ccccc3)CC2)cc1
SF-268 CNS
  TGI: > 100000 nM
HCT-15 colon
  TGI: 97900 nM
SF-539 CNS
  TGI: 41500 nM
UO-31 renal
  TGI: 26600 nM
ACHN renal
  TGI: > 100000 nM
OVCAR-4 ovarian
  TGI: > 100000 nM
HOP-92 NSCLC
  TGI: 34500 nM
M14 melanoma
  TGI: 38500 nM
U251 CNS
  TGI: > 100000 nM
NCI-H23 lung
  TGI: > 100000 nM
DU-145 prostate
  TGI: > 100000 nM
COLO 205 colon
  TGI: 28900 nM
SNB-75 CNS
  TGI: 92600 nM
OVCAR-5 ovarian
  TGI: 76100 nM
SN12C renal
  TGI: > 100000 nM
SK-MEL-5 melanoma
  TGI: 25600 nM
UACC-257 melanoma
  TGI: 34500 nM
HS 578T breast
  TGI: > 100000 nM
HCC-2998 colon
  TGI: 10500 nM
KM12 colon
  TGI: 33300 nM
SK-OV-3 ovarian
  TGI: > 100000 nM
UACC-62 melanoma
  TGI: > 100000 nM
MCF7 breast
  TGI: 88200 nM
TK-10 renal
  TGI: > 100000 nM
IGROV1 ovarian
  TGI: > 100000 nM
SW-620 colon
  TGI: 60600 nM
A549 NSCLC
  TGI: > 100000 nM
EKVX NSCLC
  TGI: > 100000 nM
NCI-H226 lung
  TGI: > 100000 nM
LOX IMVI melanoma
  TGI: 43500 nM
MOLT-4 leukemia
  TGI: > 100000 nM
HCT-116 colon
  TGI: 53400 nM
RPMI-8226 leukemia
  TGI: > 100000 nM
786-0 renal
  TGI: 60600 nM
MDA-MB-435
  TGI: > 100000 nM
SNB-19 CNS
  TGI: > 100000 nM
T-47D breast
  TGI: 72400 nM
MALME-3M melanoma
  TGI: 34900 nM
OVCAR-8 ovarian
  TGI: > 100000 nM
MDA-MB-231 breast
  TGI: 88900 nM
HL-60(TB) leukemia
  TGI: 25900 nM
NCI/ADR-RES ovarian
  TGI: > 100000 nM
A498 renal
  TGI: 63800 nM
SF-295 CNS
  TGI: 44800 nM
HT29 colon
  TGI: 24200 nM
HOP-62 NSCLC
  TGI: > 100000 nM
SK-MEL-28 melanoma
  TGI: 36500 nM
CCRF-CEM leukemia
  TGI: 88300 nM
RXF 393 renal
  TGI: 73800 nM
SR leukemia
  TGI: 93200 nM
NCI-H460 lung
  TGI: 53900 nM

## C#Cc1nc2ccccc2c(=O)[nH]1
SF-268 CNS
  GI50: 1540 nM
  TGI: 4570 nM
HCT-15 colon
  GI50: 224 nM
  TGI: 644 nM
SF-539 CNS
  GI50: 345 nM
  TGI: 1420 nM
UO-31 renal
  GI50: 383 nM
  TGI: 1610 nM
ACHN renal
  GI50: 336 nM
  TGI: 1320 nM
OVCAR-4 ovarian
  GI50: 1380 nM
  TGI: 2790 nM
HOP-92 NSCLC
  GI50: 1140 nM
  TGI: 2610 nM
M14 melanoma
  GI50: 1070 nM
  TGI: 3060 nM
U251 CNS
  GI50: 1660 nM
  TGI: 4280 nM
NCI-H23 lung
  GI50: 1690 nM
  TGI: 4770 nM
DU-145 prostate
  GI50: 1630 nM
  TGI: 8250 nM
COLO 205 colon
  GI50: 818 nM
  TGI: 2420 nM
SNB-75 CNS
  GI50: 1800 nM
  TGI: 5160 nM
OVCAR-5 ovarian
  GI50: 1040 nM
  TGI: 2590 nM
K-562 leukemia
  GI50: 544 nM
  TGI: 20400 nM
SN12C renal
  GI50: 331 nM
  TGI: 1260 nM
SK-MEL-5 melanoma
  GI50: 633 nM
  TGI: 2010 nM
OVCAR-3 ovarian
  GI50: 262 nM
  TGI: 643 nM
UACC-257 melanoma
  GI50: 505 nM
  TGI: 3150 nM
HS 578T breast
  GI50: 1690 nM
  TGI: 7120 nM
HCC-2998 colon
  GI50: 1600 nM
  TGI: 3110 nM
KM12 colon
  GI50: 1390 nM
  TGI: 2940 nM
BT-549 breast
  GI50: 222 nM
  TGI: 422 nM
SK-OV-3 ovarian
  GI50: 6540 nM
  TGI: 40100 nM
UACC-62 melanoma
  GI50: 286 nM
  TGI: 1030 nM
MCF7 breast
  GI50: 282 nM
  TGI: 2750 nM
CAKI-1 renal
  GI50: 1430 nM
  TGI: 3470 nM
TK-10 renal
  GI50: 546 nM
  TGI: 11200 nM
IGROV1 ovarian
  GI50: 585 nM
  TGI: 1700 nM
SW-620 colon
  GI50: 291 nM
  TGI: 1120 nM
A549 NSCLC
  GI50: 2960 nM
  TGI: 12900 nM
NCI-H226 lung
  GI50: 513 nM
  TGI: 11700 nM
LOX IMVI melanoma
  GI50: 168 nM
  TGI: 315 nM
MOLT-4 leukemia
  GI50: 316 nM
  TGI: 994 nM
HCT-116 colon
  GI50: 247 nM
  TGI: 716 nM
RPMI-8226 leukemia
  GI50: 213 nM
  TGI: 635 nM
786-0 renal
  GI50: 582 nM
  TGI: 2120 nM
MDA-MB-435
  GI50: 510 nM
  TGI: 2130 nM
SNB-19 CNS
  GI50: 4190 nM
  TGI: 18000 nM
T-47D breast
  GI50: 1360 nM
  TGI: 3600 nM
MALME-3M melanoma
  GI50: 1230 nM
  TGI: 3040 nM
OVCAR-8 ovarian
  GI50: 897 nM
  TGI: 8190 nM
MDA-MB-231 breast
  GI50: 318 nM
  TGI: 1490 nM
HL-60(TB) leukemia
  GI50: 260 nM
  TGI: 807 nM
NCI/ADR-RES ovarian
  GI50: 927 nM
  TGI: 8190 nM
SK-MEL-2 melanoma
  GI50: 2150 nM
  TGI: 6190 nM
A498 renal
  GI50: 1580 nM
  TGI: 3260 nM
NCI-H522 lung
  GI50: 765 nM
  TGI: 2180 nM
PC-3 prostate
  GI50: 674 nM
  TGI: 2540 nM
SF-295 CNS
  GI50: 3720 nM
  TGI: 20200 nM
HT29 colon
  GI50: 428 nM
  TGI: 1640 nM
HOP-62 NSCLC
  GI50: 1950 nM
  TGI: 5640 nM
SK-MEL-28 melanoma
  GI50: 861 nM
  TGI: 3420 nM
CCRF-CEM leukemia
  GI50: 237 nM
  TGI: 721 nM
RXF 393 renal
  GI50: 249 nM
  TGI: 871 nM
SR leukemia
  GI50: 311 nM
  TGI: 2600 nM
NCI-H460 lung
  GI50: 1790 nM
  TGI: 7660 nM
